Reference: patent publication US20130252813A1, “Herbicidal Compositions for Tolerant or Resistant Sugar Beet Crops” (Bayer CropScience AG, priority 1998, published 2013)

Columns and labels:
Format in all cases: in vivo
transgenic sugar beet [1] = experiment: Damage to transgenic sugar beet (field trial, Table 5); conditions: application in the 3-5-leaf stage
Description: (§1) Transgenic sugar beet plants with resistance to one or more herbicides (A) were grown together with typical weed plants in the open in 2×5 m plots under natural field conditions; alternatively, the weed population established naturally while the sugar beet plants grew. Treatment with the compositions according to the invention and, for control purposes, with separate application of the active ingredients of the components alone, was carried out under standard conditions with a plot sprayer at an application rate of 200-300 liters of water per hectare in parallel trials in accordance with the scheme of Table 1, i.e. pre-sowing/pre-emergence, […] or post-emergence at the early, medium or late stage.
(§2) At 2, 4, 6 and 8 week intervals after application, the herbicidal activity of the active ingredients or active ingredient mixtures were scored visually by comparing the treated plots with untreated control plots. Damage and development of all aerial plant organs was recorded. The scoring was done using a percentage scale (100% activity=all plants dead; 50% activity=50% of the plants and green plant organs dead; 0% activity=no discernible effect=like control plot). The score values of in each case 4 plots were averaged.

Avena fatua = experiment: Herbicidal action and selectivity in sugar beet crop (field trial, Table 5); conditions: application in the 3-5-leaf stage, scoring 4 weeks after application
Description: as §1, §2

Galium aparine [2] = experiment: Herbicidal action (field trial, Table 7); conditions: application in the 4-5-leaf stage, scoring 26 days after application
Description: as §1, §2

transgenic sugar beet [3] = experiment: Damage to transgenic sugar beet - field trial (Table 2); conditions: application in 2-4-leaf stage
Description: as §1, §2

Setaria viridis [4] = experiment: Herbicidal action in sugar beet - field trial (Table 2); conditions: application in 2-4-leaf stage, scoring 3 weeks after application
Description: as §1
(§3) […] Damage and development of all aerial plant organs was recorded. The scoring was done using a percentage scale (100% activity=all plants dead; 50% activity=50% of the plants and green plant organs dead; 0% activity=no discernible effect=like control plot). The score values of in each case 4 plots were averaged.

transgenic sugar beet [5] = experiment: Damage to transgenic sugar beet (greenhouse experiment, Table 3); set-up: scale not given here; conditions: greenhouse Table 3, application in the 4-5-leaf stage
Galium aparine [6] = experiment: Herbicidal action in sugar beet crop (greenhouse experiment, Table 3); conditions: application in the 4-5-leaf stage, scoring 3 weeks after application
From the text: Seeds or rhizomes of monocotyledonous and dicotyledonous weeds are placed in sandy loam soil in cardboard pots, covered with soil and grown in the greenhouse under good growth conditions. […] The compositions according to the
Invention, which are formulated as wettable powders or as emulsion concentrates, are sprayed at various dosages onto the green plant organs at an application rate of 600 to 800 l of water per ha (converted). After the experimental plants have remained in the greenhouse for approx. 3 to 4 weeks under optimal growth conditions, the effect of the preparations is scored visually in comparison with untreated controls. The compositions according to the invention also have a good herbicidal activity against a broad spectrum of economically Important grass weeds and broad-leaved weeds when applied post-emergence.

Amaranthus retroflexus = experiment: Herbicidal action (field trial, sequential treatment, Table 8); conditions: dose 3500 g A.S./ha pre-emergence; scorings 22 days after application
Description: as §1, §3

Setaria viridis [7] = experiment: as above; conditions: dose 3500 g A.S./ha pre-emergence; scorings 22 days after application
Description: as §1, §3

Echinochloa crus-galli = experiment: Herbicidal action and selectivity in sugar beet crop (field trial, Table 4); conditions: application in 3-leaf stage, scoring 4 weeks after application
Description: as §1, §2

transgenic sugar beet [8] = experiment: Damage to transgenic sugar beet (field trial, Table 4); conditions: application in 3-leaf stage
Description: as §1, §2

CCOC(=O)C(C)Oc1ccc(Oc2nc3ccc(Cl)cc3o2)cc1 (racemic) [(B3.2), fenoxaprop-ethyl (rac.)] was tested, and the “Damage to transgenic sugar beet” value (transgenic sugar beet [1]; dose 15 g A.S./ha) was 0, the “Damage to transgenic sugar beet” value (transgenic sugar beet [1]; dose 30 g A.S./ha) was 0 and the “Damage to transgenic sugar beet” value (transgenic sugar beet [1]; dose 60 g A.S./ha) was 0. The “Herbicidal action in % against Avena fatua” value (Avena fatua; dose 15 g A.S./ha) was 20%, the “Herbicidal action in % against Avena fatua” value (Avena fatua; dose 30 g A.S./ha) was 60% and the “Herbicidal action in % against Avena fatua” value (Avena fatua; dose 60 g A.S./ha) was 85%.
In the case of CC(C)N.O=C(O)CNCP(=O)(O)O [(A2.2), monoisopropylammonlum salt of glyphosate], the “Herbicidal action in % against Galium aparine” value (Galium aparine [2]; dose 125 g A.S./ha) is reported as 10%, the “Herbicidal action in % against Galium aparine” value (Galium aparine [2]; dose 250 g A.S./ha) is reported as 40% and the “Herbicidal action in % against Galium aparine” value (Galium aparine [2]; dose 500 g A.S./ha) is reported as 60%. For the same molecule, the “Herbicidal action in % against Galium aparine” value (Galium aparine [2]; dose 1000 g A.S./ha) was 85%.
Cc1cccc(S(=O)(=O)NC(=O)Nc2nc(OCC(F)(F)F)nc(N(C)C)n2)c1C(=O)O [(B1.3)] was tested, and the “Damage to transgenic sugar beet” value (transgenic sugar beet [3]; dose 8 g A.S./ha) was 0, the “Damage to transgenic sugar beet” value (transgenic sugar beet [3]; dose 17 g A.S./ha) was 0 and the “Herbicidal action in % against Setaria viridis” value (Setaria viridis [4]; dose 8 g A.S./ha) was 0%. For the same molecule, the “Herbicidal action in % against Setaria viridis” value (Setaria viridis [4]; dose 17 g A.S./ha) was 20%.
For Cc1nnc(-c2ccccc2)c(=O)n1N [(B1.4), 4-amino-4,5-dihydro-3-methyl-6-phenyl-1,2,4-triazin-5-one], the “Damage to transgenic sugar beet” value (transgenic sugar beet [5]; dose 750 g A.S./ha) was 0, the “Damage to transgenic sugar beet” value (transgenic sugar beet [5]; dose 1500 g A.S./ha) was 0 and the “Damage to transgenic sugar beet” value (transgenic sugar beet [5]; dose 3000 g A.S./ha) was 0. For the same molecule, the “Herbicidal action in % against Galium aparine” value (Galium aparine [6]; dose 750 g A.S./ha) was 5%, the “Herbicidal action in % against Galium aparine” value (Galium aparine [6]; dose 1500 g A.S./ha) was 5% and the “Herbicidal action in % against Galium aparine” value (Galium aparine [6]; dose 3000 g A.S./ha) was 5%. The “Herbicidal action in % against Amaranthus retroflexus” value (Amaranthus retroflexus) was 73% and the “Herbicidal action in % against Setaria viridis” value (Setaria viridis [7]) was 20%.
COC(=O)Nc1cccc(NC(=O)Oc2cccc(C)c2)c1 [(B2.2), 3-methylphenyl N-[3-(methoxycarbonylamino)phenyl]carbamate] was tested, and the “Damage to transgenic sugar beet” value (transgenic sugar beet [5]; dose 500 g A.S./ha) was 0, the “Damage to transgenic sugar beet” value (transgenic sugar beet [5]; dose 1000 g A.S./ha) was 0 and the “Damage to transgenic sugar beet” value (transgenic sugar beet [5]; dose 2000 g A.S./ha) was 0. The “Herbicidal action in % against Galium aparine” value (Galium aparine [6]; dose 500 g A.S./ha) was 20%, the “Herbicidal action in % against Galium aparine” value (Galium aparine [6]; dose 1000 g A.S./ha) was 30% and the “Herbicidal action in % against Galium aparine” value (Galium aparine [6]; dose 2000 g A.S./ha) was 30%. For the same molecule, the “Herbicidal action in % against Galium aparine” value (Galium aparine [2]; dose 500 g A.S./ha) was 20%, the “Herbicidal action in % against Galium aparine” value (Galium aparine [2]; dose 1000 g A.S./ha) was 30% and the “Herbicidal action in % against Galium aparine” value (Galium aparine [2]; dose 2000 g A.S./ha) was 30%.
O=C(O)c1nc(Cl)ccc1Cl [(B2.4), 3,6-dichloropyridine-2-carboxylic acid] was tested, and the “Damage to transgenic sugar beet” value (transgenic sugar beet [5]; dose 50 g A.S./ha) was 0, the “Damage to transgenic sugar beet” value (transgenic sugar beet [5]; dose 100 g A.S./ha) was 0 and the “Damage to transgenic sugar beet” value (transgenic sugar beet [5]; dose 200 g A.S./ha) was 0. For the same molecule, the “Herbicidal action in % against Galium aparine” value (Galium aparine [6]; dose 50 g A.S./ha) was 5%, the “Herbicidal action in % against Galium aparine” value (Galium aparine [6]; dose 100 g A.S./ha) was 35% and the “Herbicidal action in % against Galium aparine” value (Galium aparine [6]; dose 200 g A.S./ha) was 45%.
With CCC/C(=N\OCC)C1=C(O)CC(CC(C)SCC)CC1=O (stereo not shown) [(B4.1), (E,Z)-2-(1-ethoxyimino-butyl)-5-[2-(ethylthio)propyl]-3-hydroxycyclohex-2-enone] the “Herbicidal action in % against Echinochloa crus-galli” value (Echinochloa crus-galli; dose 105 g A.S./ha) was 35%, the “Herbicidal action in % against Echinochloa crus-galli” value (Echinochloa crus-galli; dose 210 g A.S./ha) was 73% and the “Herbicidal action in % against Echinochloa crus-galli” value (Echinochloa crus-galli; dose 315 g A.S./ha) was 85%. The “Damage to transgenic sugar beet” value (transgenic sugar beet [8]; dose 105 g A.S./ha) was 0, the “Damage to transgenic sugar beet” value (transgenic sugar beet [8]; dose 210 g A.S./ha) was 0 and the “Damage to transgenic sugar beet” value (transgenic sugar beet [8]; dose 315 g A.S./ha) was 0.
With CCCC(=NOCC)C1=C(O)CC(C2CCCSC2)CC1=O (stereo not shown) [(B4.2), 2-(1-ethoxyiminobutyl)-3-hydroxy-5-thian-3-ylcyclohex-2-enone] the “Herbicidal action in % against Echinochloa crus-galli” value (Echinochloa crus-galli; dose 62.5 g A.S./ha) was 45%, the “Herbicidal action in % against Echinochloa crus-galli” value (Echinochloa crus-galli; dose 125 g A.S./ha) was 70% and the “Herbicidal action in % against Echinochloa crus-galli” value (Echinochloa crus-galli; dose 250 g A.S./ha) was 93%. The “Damage to transgenic sugar beet” value (transgenic sugar beet [8]; dose 62.5 g A.S./ha) was 0, the “Damage to transgenic sugar beet” value (transgenic sugar beet [8]; dose 125 g A.S./ha) was 0 and the “Damage to transgenic sugar beet” value (transgenic sugar beet [8]; dose 250 g A.S./ha) was 0.
